The results in this text go back to ChEMBL document CHEMBL1137853, “Discovery of potent and selective beta-homophenylalanine based dipeptidyl peptidase IV inhibitors” (Bioorg Med Chem Lett, 2004).

In data set [1] the target is Dipeptidyl peptidase 4 (Homo sapiens, UniProt P27487). Kind of data set: Inhibitory concentration against Dipeptidyl peptidase IV.
Data set [2] has as its target Dipeptidyl peptidase 2 (Homo sapiens, UniProt Q9UHL4). Kind of data set: Inhibitory concentration against quiescent cell proline dipeptidase.
Data set [3] is described as follows: Plasma clearance in rat at 2 mpk po. In kind it is ADME, organism-based. To be noted: 2 mg/kg, read-out: Clearance.
Data set [4] in a line: Half life in rat at 1 mpk iv. Type of data set: ADME, organism-based. The conditions noted are these: in vivo, 1 mg/kg.
Data set [5] in a line: Half life in rat at 2 mpk po. To be noted: in vivo, 2 mg/kg. Type of data set: ADME, organism-based.
Data set [6] is described as follows: Bioavailability in rat (dose 2 mg/kg p.o.). In kind it is ADME, organism-based. To be noted: in vivo, po.
A short description of data set [7]: Plasma clearance in rat at 1 mpk iv. To be noted: 1 mg/kg. In kind it is ADME, organism-based.
Data set [8] in a line: Bioavailability in rat (dose 1 mg/kg i.v.). The conditions noted are these: in vivo, iv. In kind it is ADME, organism-based.

For orientation: IC50 means the midpoint of a concentration-inhibition curve. A high value points to a need for much substance. Broadly, the half-life is how long it takes for the measured level to halve. A higher half-life goes with slow loss. For orientation: bioavailability means dose-corrected exposure relative to a reference, in per cent. The low end stands for poor availability, the high end for good availability. Usually clearance stands for a measure of how efficiently the substance is removed, as volume per time. Lower therefore signals inefficient removal.

Chain of Dipeptidyl peptidase 4 (P27487 whole entry): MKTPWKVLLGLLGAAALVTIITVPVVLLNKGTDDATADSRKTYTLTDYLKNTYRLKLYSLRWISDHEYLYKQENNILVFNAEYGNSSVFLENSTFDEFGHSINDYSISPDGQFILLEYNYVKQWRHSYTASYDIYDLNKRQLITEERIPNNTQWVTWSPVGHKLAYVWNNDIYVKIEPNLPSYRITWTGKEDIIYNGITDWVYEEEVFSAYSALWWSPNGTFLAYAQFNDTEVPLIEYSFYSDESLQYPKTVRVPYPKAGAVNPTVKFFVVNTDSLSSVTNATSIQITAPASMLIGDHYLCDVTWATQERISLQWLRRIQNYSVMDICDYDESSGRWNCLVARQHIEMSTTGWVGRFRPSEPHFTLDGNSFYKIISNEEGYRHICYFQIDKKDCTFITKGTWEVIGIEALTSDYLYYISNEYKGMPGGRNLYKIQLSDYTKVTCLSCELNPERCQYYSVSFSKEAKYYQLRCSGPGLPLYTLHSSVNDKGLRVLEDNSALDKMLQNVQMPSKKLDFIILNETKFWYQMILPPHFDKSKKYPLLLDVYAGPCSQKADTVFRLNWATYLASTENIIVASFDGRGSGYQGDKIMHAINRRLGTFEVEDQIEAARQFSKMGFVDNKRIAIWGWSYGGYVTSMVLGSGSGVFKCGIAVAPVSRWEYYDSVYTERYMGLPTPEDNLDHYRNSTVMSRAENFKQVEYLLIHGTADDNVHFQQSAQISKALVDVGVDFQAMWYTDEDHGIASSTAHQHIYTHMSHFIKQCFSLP

`N[C@@H](CC(=O)N1CCSC1)Cc1ccoc1` returned a half-maximal inhibitory concentration (IC50) in data set [1] of 46.9 µM.

On to `N[C@@H](CC(=O)N1CCSC1)CC1CCCC1`, for which, in data set [1], the IC50 turned out to be 27.5 µM.

Turning to `N[C@@H](CC(=O)N1CCSC1)Cc1cccc(F)c1`, the half-maximal inhibitory concentration (IC50) in data set [1] amounted to 2.03 µM; in data set [2] it was 48.5 µM.

In turn, `N[C@@H](CC(=O)N1CCSC1)Cc1ccsc1` came in with a half-maximal inhibitory concentration (IC50) in data set [1] of 5.7 µM.

Regarding `N[C@@H](CC(=O)N1CCSC1)Cc1ccncc1`, in data set [1], the concentration for half-maximal inhibition (IC50) is 51 µM.

`N[C@@H](CC(=O)N1CCSC1)Cc1ccc(C(F)(F)F)cc1` registered an IC50 in data set [1] of 7.69 µM.

In turn, `N[C@@H](CC(=O)N1CCSC1)Cc1ccccc1` had an IC50 in data set [2] greater than 100 µM.

On to `N[C@@H](CC(=O)N1CCSC1)Cc1ccc(Cl)cc1`, for which the half-maximal inhibitory concentration (IC50) is 3.03 µM in data set [1] and 36.2 µM in data set [2].

As for `N[C@@H](CC(=O)N1CCSC1)Cc1ccc(F)cc1F`, the IC50 in data set [1] turned out to be 0.589 µM; in data set [2] it was 56.1 µM.

`N[C@@H](CC(=O)N1CCSC1)Cc1ccc(Cl)c(Cl)c1`: the values for the half-maximal inhibitory concentration (IC50) in data set [1] and in data set [2] were 2.03 µM and 48.5 µM, respectively.

In the case of `N[C@@H](CC(=O)N1CCSC1)Cc1ccc([N+](=O)[O-])cc1`, the IC50 was determined as 1.55 µM in data set [1] and 24.3 µM in data set [2].

As to `N[C@@H](CC(=O)N1CCSC1)Cc1cccc(F)c1F`, half-maximal inhibition in data set [1] (IC50) required 9.4 µM.

On to `N[C@@H](CC(=O)N1CCSC1)Cc1ccc(F)c(F)c1`, for which the IC50 was found to be 1.7 µM in data set [1] and 33.9 µM in data set [2].

In turn, `N[C@@H](CC(=O)N1CCSC1)Cc1ccccn1` came in with a half-inhibitory concentration (IC50) in data set [1] of 39.6 µM.

As for `N#Cc1ccccc1C[C@@H](N)CC(=O)N1CCSC1`, the concentration for half-maximal inhibition (IC50) is 2.52 µM in data set [1] and greater than 100 µM in data set [2].

The compound `N[C@@H](CC(=O)N1CCSC1)Cc1cccnc1` showed an IC50 in data set [1] of 44.9 µM.

As for `Cc1ccccc1C[C@@H](N)CC(=O)N1CCSC1`, the figures for the IC50 in data set [1] and in data set [2] were 0.981 µM and 92.1 µM, respectively.

On to `N[C@@H](CC(=O)N1CCSC1)Cc1cccc(C(F)(F)F)c1`, for which the IC50 stood at 3.61 µM in data set [1] and 24.6 µM in data set [2].

As for `N[C@@H](CC(=O)N1CCSC1)Cc1ccccc1C(F)(F)F`, the IC50 in data set [1] turned out to be 2.26 µM; in data set [2], 82.1 µM.

On to `COc1cc(OC)cc(-c2nc(-c3ccc(Cl)cc3Cl)c(CN(C)C)c(N(C)C)n2)c1`, for which the IC50 in data set [1] turned out to be 0.0001 µM.

`N[C@@H](CC(=O)N1CCSC1)Cc1ccccc1F`: the values for the concentration for half-maximal inhibition (IC50) in data set [1] and in data set [2] were 0.931 µM and 49.7 µM, respectively.

Regarding `N[C@@H](CC(=O)N1CCSC1)Cc1c(F)cccc1F`, the IC50 in data set [1] was 8.48 µM.

As to `N[C@@H](CC(=O)N1CCSC1)CC1CCCCC1`, the half-inhibitory concentration (IC50) in data set [1] is 33 µM.

In data set [1], `N[C@H](CCc1ccccc1)CC(=O)N1CCSC1` came in with an IC50 of 16.5 µM.

With `N[C@@H](CC(=O)N1CCSC1)Cc1cc(F)c(F)cc1F`, the CL/F in data set [3] came out at 120 mL/min/kg. Also, the half-life in data set [4] and in data set [5] was 66 min each time. In addition, the bioavailability in data set [6] and in data set [8] was 3% each time. Also, the clearance in data set [7] is 120 mL/min/kg.

`N[C@@H](CC(=O)N1CCSC1)Cc1ccc(F)cc1`: the IC50 was determined as 3.28 µM in data set [1] and 67.6 µM in data set [2].

Regarding `N[C@@H](CC(=O)N1CCSC1)c1ccccc1`, the half-inhibitory concentration (IC50) in data set [1] was greater than 100 µM.

Turning to `N#Cc1ccc(C[C@@H](N)CC(=O)N2CCSC2)cc1`, the concentration for half-maximal inhibition (IC50) in data set [1] stood at 14.9 µM.

With `N[C@@H](CC(=O)N1CCSC1)Cc1ccc(I)cc1`, the half-maximal inhibitory concentration (IC50) in data set [1] worked out at 10.7 µM; in data set [2], 5.78 µM.

`N#Cc1cccc(C[C@@H](N)CC(=O)N2CCSC2)c1`: the values for the IC50 in data set [1] and in data set [2] were 8.95 µM and 29.8 µM, respectively.

As for `N[C@@H](CC(=O)N1CCSC1)Cc1cc(F)ccc1F`, in data set [3], the CL/F worked out at 110 mL/min/kg. Besides, the half-life in data set [4] and in data set [5] was 30 min throughout. Moreover, the IC50 amounted to 0.27 µM in data set [1] and 77.6 µM in data set [2]. The bioavailability in data set [6] and in data set [8] was 2% throughout. Besides, the clearance in data set [7] came to 110 mL/min/kg.
